“And” between values parts separate entries of the source, which are not always exact repeats. Equal entries are not always repeated. Toxic doses and inconclusive results are not listed. No stated cut-off is given here; in the data, active means T/C of 150% or more; inactive means T/C below 125%.
Tested on: L1210 leukemia ip in BDF1 mice, survival T/C
Experiment: NCI In Vivo Anticancer Drug Screen. Data for tumor model L1210 Leukemia (intraperitoneal) in B6D2F1 (BDF1) mice
Conditions: endpoint: mean survival time, higher = longer survival
Procedure, shortened: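 Ratio derived from survival: compound-dosed mice over vehicle-dosed mice, all bearing a transplantable tumor.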

[1] = dose: 100.0 mg/kg/injection, schedule: Q01DX001 (ip), vehicle: other
[2] = dose: 200.0 mg/kg/injection, schedule: Q01DX001 (ip), vehicle: other
[3] = dose: 400.0 mg/kg/injection, schedule: Q01DX001 (ip), vehicle: other
[4] = dose: 100.0 mg/kg/injection, schedule: Q04DX002 (ip), vehicle: Klucel (hydroxypropylcellulose) (HPC)
[5] = dose: 200.0 mg/kg/injection, schedule: Q04DX002 (ip), vehicle: Klucel (hydroxypropylcellulose) (HPC)
[6] = dose: 400.0 mg/kg/injection, schedule: Q04DX002 (ip), vehicle: Klucel (hydroxypropylcellulose) (HPC)
[7] = dose: 100.0 mg/kg/injection, schedule: Q01DX009 (ip), vehicle: saline with Tween-80
[8] = dose: 100.0 mg/kg/injection, schedule: Q04DX003 (ip), vehicle: saline with Tween-80
[9] = dose: 200.0 mg/kg/injection, schedule: Q04DX003 (ip), vehicle: saline with Tween-80
[10] = dose: 400.0 mg/kg/injection, schedule: Q04DX003 (ip), vehicle: saline with Tween-80
[11] = dose: 50.0 mg/kg/injection, schedule: Q04DX003 (ip), vehicle: Klucel (hydroxypropylcellulose) (HPC)
[12] = dose: 100.0 mg/kg/injection, schedule: Q04DX003 (ip), vehicle: Klucel (hydroxypropylcellulose) (HPC)
[13] = dose: 200.0 mg/kg/injection, schedule: Q04DX003 (ip), vehicle: Klucel (hydroxypropylcellulose) (HPC)
[14] = dose: 400.0 mg/kg/injection, schedule: Q04DX003 (ip), vehicle: Klucel (hydroxypropylcellulose) (HPC)
[15] = dose: 50.0 mg/kg/injection, schedule: Q01DX001 (ip), vehicle: saline
[16] = dose: 100.0 mg/kg/injection, schedule: Q01DX001 (ip), vehicle: saline
[17] = dose: 200.0 mg/kg/injection, schedule: Q01DX001 (ip), vehicle: saline
[18] = dose: 400.0 mg/kg/injection, schedule: Q01DX001 (ip), vehicle: saline
[19] = dose: 100.0 mg/kg/injection, schedule: Q01DX009 (ip), vehicle: Klucel (hydroxypropylcellulose) (HPC)
[20] = dose: 200.0 mg/kg/injection, schedule: Q01DX009 (ip), vehicle: Klucel (hydroxypropylcellulose) (HPC)
[21] = dose: 400.0 mg/kg/injection, schedule: Q01DX009 (ip), vehicle: Klucel (hydroxypropylcellulose) (HPC)
[22] = dose: 50.0 mg/kg/injection, schedule: Q01DX009 (ip), vehicle: saline
[23] = dose: 100.0 mg/kg/injection, schedule: Q01DX009 (ip), vehicle: saline
[24] = dose: 200.0 mg/kg/injection, schedule: Q01DX009 (ip), vehicle: saline
[25] = dose: 100.0 mg/kg/injection, schedule: Q04DX003 (ip), vehicle: saline
[26] = dose: 200.0 mg/kg/injection, schedule: Q04DX003 (ip), vehicle: saline
[27] = dose: 400.0 mg/kg/injection, schedule: Q04DX003 (ip), vehicle: saline

Measured: T/C

CCSSCC(N)C(=O)O (stereo unspecified)
inactive: [1] 94 % of control | [2] 103 % of control | [3] 103 % of control

Cc1cc(Cl)ccc1OCC(=O)NCC(C)O (stereo unspecified)
inactive: [4] 100 % of control | [5] 98 % of control | [6] 98 % of control

CCOc1nc(S(=O)(=O)CC)ncc1C
inactive: [7] 109 % of control | [8] 105 % of control | dose: 200.0 mg/kg/injection, schedule: Q01DX009 (ip), vehicle: saline with Tween-80 104 % of control | [9] 100 % of control | dose: 400.0 mg/kg/injection, schedule: Q01DX009 (ip), vehicle: saline with Tween-80 87 % of control | [10] 103 % of control

COC(C)c1cnccc1/C(C)=C1/Nc2ccccc2C1=O (stereo unspecified)
inactive: [11] 95 % of control | dose: 100.0 mg/kg/injection, schedule: Q01DX001 (ip), vehicle: Klucel (hydroxypropylcellulose) (HPC) 107 % of control | [12] 100 % of control and 91 % of control | dose: 200.0 mg/kg/injection, schedule: Q01DX001 (ip), vehicle: Klucel (hydroxypropylcellulose) (HPC) 94 % of control | [13] 96 % of control | dose: 400.0 mg/kg/injection, schedule: Q01DX001 (ip), vehicle: Klucel (hydroxypropylcellulose) (HPC) 97 % of control | [14] 97 % of control

O=[N+]([O-])C1C2CCC(C2)C1[N+](=O)[O-] (stereo unspecified)
inactive: dose: 75.0 mg/kg/injection, schedule: Q01DX001 (ip), vehicle: saline 91 % of control | dose: 150.0 mg/kg/injection, schedule: Q01DX001 (ip), vehicle: saline 100 % of control | dose: 300.0 mg/kg/injection, schedule: Q01DX001 (ip), vehicle: saline 87 % of control

C/C=C/CCCCCCCC
inactive: dose: 100.0 mg/kg/injection, schedule: Q01DX001 (ip), vehicle: saline with Tween-80 93 % of control | dose: 200.0 mg/kg/injection, schedule: Q01DX001 (ip), vehicle: saline with Tween-80 95 % of control | dose: 400.0 mg/kg/injection, schedule: Q01DX001 (ip), vehicle: saline with Tween-80 96 % of control

CN1c2ccccc2C(C)(C)C12C=Cc1ccccc1O2 (stereo unspecified)
inactive: dose: 25.0 mg/kg/injection, schedule: Q04DX002 (ip), vehicle: gum acacia 111 % of control | dose: 50.0 mg/kg/injection, schedule: Q04DX002 (ip), vehicle: gum acacia 103 % of control | dose: 100.0 mg/kg/injection, schedule: Q04DX002 (ip), vehicle: gum acacia 88 % of control | dose: 200.0 mg/kg/injection, schedule: Q04DX002 (ip), vehicle: gum acacia 94 % of control

[O-]c1on[n+](-c2ccccc2)c1-c1ccccc1
inactive: dose: 75.0 mg/kg/injection, schedule: Q01DX009 (ip), vehicle: Klucel (hydroxypropylcellulose) (HPC) 93 % of control | dose: 75.0 mg/kg/injection, schedule: Q04DX003 (ip), vehicle: Klucel (hydroxypropylcellulose) (HPC) 109 % of control | dose: 150.0 mg/kg/injection, schedule: Q01DX009 (ip), vehicle: Klucel (hydroxypropylcellulose) (HPC) 97 % of control | dose: 150.0 mg/kg/injection, schedule: Q04DX003 (ip), vehicle: Klucel (hydroxypropylcellulose) (HPC) 105 % of control | dose: 300.0 mg/kg/injection, schedule: Q01DX009 (ip), vehicle: Klucel (hydroxypropylcellulose) (HPC) 95 % of control | dose: 300.0 mg/kg/injection, schedule: Q04DX003 (ip), vehicle: Klucel (hydroxypropylcellulose) (HPC) 107 % of control

c1ccc(-c2nccnc2-c2ccccc2)cc1
inactive: [4] 93 % of control | [5] 107 % of control | [6] 111 % of control

CN(N=Nc1ccc(C(=N)N)cc1)C1CCCCC1
inactive: dose: 9.5 mg/kg/injection, schedule: Q01DX001 (ip), vehicle: saline 95 % of control | dose: 19.0 mg/kg/injection, schedule: Q01DX001 (ip), vehicle: saline 98 % of control | dose: 38.0 mg/kg/injection, schedule: Q01DX001 (ip), vehicle: saline 95 % of control

CCCCCCN(CCCCCC)[N+](=O)[O-]
inactive: [1] 96 % of control | [2] 100 % of control | [3] 96 % of control

CCN(CC)c1ccc(/C=N\NC(=O)CCCC(=O)N/N=C/c2ccc(N(CC)CC)cc2)cc1
inactive: [15] 102 % of control | [16] 100 % of control | [17] 96 % of control | [18] 100 % of control

C/C(=N\NC(=O)c1ccccc1)c1ccc(-c2ccccc2)cc1
inactive: [19] 94 % of control | [20] 105 % of control | [21] 94 % of control

CCNC(=O)NCC
inactive: [15] 109 % of control | [16] 101 % of control | [17] 103 % of control | [18] 97 % of control

CC(c1ccccc1)C(C)(C#N)c1ccccc1 (stereo unspecified)
inactive: [15] 97 % of control | [16] 100 % of control | [17] 100 % of control | [18] 103 % of control

C#CCC1(OC(N)=O)CCCCC1
inactive: dose: 25.0 mg/kg/injection, schedule: Q01DX009 (ip), vehicle: Klucel (hydroxypropylcellulose) (HPC) 96 % of control | dose: 25.0 mg/kg/injection, schedule: Q04DX003 (ip), vehicle: Klucel (hydroxypropylcellulose) (HPC) 102 % of control | dose: 50.0 mg/kg/injection, schedule: Q01DX009 (ip), vehicle: Klucel (hydroxypropylcellulose) (HPC) 96 % of control | [11] 110 % of control | [19] 110 % of control | [12] 100 % of control | [20] 87 % of control | [13] 107 % of control | [14] 94 % of control

O=C1C(Br)C(Br)C(=O)N1c1ccccc1F (stereo unspecified)
inactive: dose: 12.5 mg/kg/injection, schedule: Q01DX009 (ip), vehicle: other 96 % of control | dose: 25.0 mg/kg/injection, schedule: Q01DX009 (ip), vehicle: other 92 % of control

O=[N+]([O-])c1ccc(C=Nc2ccccc2)s1
inactive: [12] 98 % of control | [13] 93 % of control

CC(=O)NC(CSC(=S)N(C)C)C(=O)O (stereo unspecified)
inactive: [22] 97 % of control | [23] 93 % of control | [24] 101 % of control

CC1CCCC(C)N1 (stereo unspecified)
inactive: [22] 94 % of control | [23] 96 % of control and 100 % of control | [25] 110 % of control and 102 % of control | [24] 94 % of control and 106 % of control | [26] 102 % of control and 94 % of control | dose: 400.0 mg/kg/injection, schedule: Q01DX009 (ip), vehicle: saline 95 % of control | [27] 87 % of control

COc1ccc([N+](=O)[O-])cc1NC(=O)N/N=C(\C)C(C)(C)C
inactive: [19] 94 % of control | [20] 102 % of control | [21] 86 % of control

CCCCOCc1c(CO)cnc(C)c1O
inactive: dose: 25.0 mg/kg/injection, schedule: Q04DX002 (ip), vehicle: saline 99 % of control | dose: 50.0 mg/kg/injection, schedule: Q04DX002 (ip), vehicle: saline 96 % of control | dose: 100.0 mg/kg/injection, schedule: Q04DX002 (ip), vehicle: saline 93 % of control and 96 % of control

CC/C(C)=C(/C(=O)O)c1ccccc1
inactive: [8] 91 % of control | [9] 94 % of control | [10] 94 % of control

Cc1ccc(CCO)c(C)c1
inactive: [19] 92 % of control | [12] 92 % of control | [20] 94 % of control | [13] 92 % of control | [21] 90 % of control | [14] 103 % of control

CO/N=C/c1ccc([N+](=O)[O-])s1
inactive: [25] 106 % of control | [26] 95 % of control | [27] 98 % of control

O=C1C=CC(=O)C2C3CC(C4OC34)C12 (stereo unspecified)
inactive: dose: 25.0 mg/kg/injection, schedule: Q01DX009 (ip), vehicle: saline with Tween-80 102 % of control | dose: 50.0 mg/kg/injection, schedule: Q01DX009 (ip), vehicle: saline with Tween-80 94 % of control | [7] 100 % of control and 89 % of control

CC12CCC(c3cn(C(=O)c4cccnc4)nc31)C2(C)C (stereo unspecified)
inactive: [12] 92 % of control | [13] 97 % of control | [14] 95 % of control

— PubChem BioAssay AID248 (DTP/NCI, 2004)
